One experiment deals with HT-29. The experiment in a line: Cell viability assay, cancer cell line panel. Format: cell-based. The following applies: Homo sapiens, mutation PIK3CA, BRAF.
Another experiment deals with NCCIT. Kind of experiment: Cell viability assay, cancer cell line panel. Format: cell-based. The following applies: Homo sapiens, mutation PTEN.

The source of these data is patent US8569511B2, “Substituted 3-(1H-benzo[d]imidazol-2-yl)-1H-indazole analogs as inhibitors of the PDK1 kinase” (University of Utah Research Foundation, priority 2011, dated 2013).

The term IC50 denotes the point on the concentration scale where inhibition reaches its midpoint. High values mean a need for much substance, low ones inhibition by little substance.

As to `O=C(Nc1ccc2[nH]nc(-c3nc4ccc(N5CCOCC5)cc4[nH]3)c2c1)C1CC1(F)F` (centres unmarked) [Compound 1, 2,2-difluoro-N-(3-(5-morpholino-1H-benzo[d]imidazol-2-yl)-1H-indazol-5-yl)cyclopropanecarboxamide], the values for the IC50 with HT-29 and in the experiment with NCCIT were 10.6 µM and 2.11 µM, respectively.
